# Experimental data taken from US9474790B2, “Stable, protracted GLP-1/glucagon receptor co-agonists for medical use” (Novo Nordisk A/S, priority 2013, dated 2016).
# Numbered stars: 1 amine (or outer) side, 2 acyl side, 3 side chain; on linkers, the order of the positions; unused ones are H or OH. Bridge positions count the residues as written; N and C are the ends. Square brackets hold non-standard residues; d marks the D form. Side chains are listed from the residue outwards. Peptide text beside a SMILES is read from it. I, II: the chains in the order shown. * marks the point of attachment. C18 diacid = O=C(O)CCCCCCCCCCCCCCCCC(=O)*; γGlu = O=C(O)[C@H](CCC(=O)[*:2])N[*:1]; Ac4c = NC1(C(=O)O)CCC1; AEEA = NCCOCCOCC(=O)O; Aib = CC(C)(N)C(=O)O
# Target: T1, human GLP-1 receptor (Homo sapiens, UniProt P43220)
# T1 construct: expressed in transfected cells; host or cells: BHK cells (parent BHKTS13), clone FCW467-12A/KZ10-1, with CRE luciferase
# Experiment: GLP-1 receptor potency, CRE luciferase reporter gene assay in BHK cells
# Assay type: cell-based
# Details: BHK cells expressing human GLP-1 receptor, read-out: EC50 GLP-1R
# Outline: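 BHK cells stably expressing human GLP-1 receptor with CRE-luciferase reporter, 5×10EE3 cells/well in phenol red-free DMEM with 10 mM Hepes, 2% ovalbumin, 0.2% Pluronic F-68. Compounds at final 1×10EE-6 to 1×10EE-13 M, 3 h at 37° C; steadylite luminescence; EC50 by four-parameter fit, in pM.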
# T1 sequence (P43220 24-463): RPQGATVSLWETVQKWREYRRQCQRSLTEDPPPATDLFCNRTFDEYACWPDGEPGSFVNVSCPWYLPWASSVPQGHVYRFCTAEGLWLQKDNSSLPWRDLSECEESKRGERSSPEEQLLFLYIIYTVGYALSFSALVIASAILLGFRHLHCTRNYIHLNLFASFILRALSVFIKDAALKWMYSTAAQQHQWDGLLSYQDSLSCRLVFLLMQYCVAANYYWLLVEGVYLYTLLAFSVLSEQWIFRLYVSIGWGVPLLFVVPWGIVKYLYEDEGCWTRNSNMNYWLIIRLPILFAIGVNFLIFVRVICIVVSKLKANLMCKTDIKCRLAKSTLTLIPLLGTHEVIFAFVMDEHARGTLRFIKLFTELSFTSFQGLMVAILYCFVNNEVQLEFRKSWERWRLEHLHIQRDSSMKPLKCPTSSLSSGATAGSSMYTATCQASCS
row,SMILES,EC50
1,"CC(C)C[C@H](NC(=O)[C@H](Cc1ccc(O)cc1)NC(=O)[C@H](CCCCN)NC(=O)[C@H](CO)NC(=O)[C@H](CC(C)C)NC(=O)[C@H](CC(=O)O)NC(=O)[C@H](CO)NC(=O)[C@@H](NC(=O)[C@H](Cc1ccccc1)NC(=O)[C@@H](NC(=O)CNC(=O)[C@H](CCC(N)=O)NC(=O)C1(NC(=O)[C@@H](N)Cc2c[nH]cn2)CCC1)[C@@H](C)O)[C@@H](C)O)C(=O)N[C@@H](CCC(=O)O)C(=O)N[C@@H](CO)C(=O)N[C@@H](CCCCN)C(=O)N[C@@H](CCCNC(=N)N)C(=O)N[C@@H](C)C(=O)N[C@@H](CCCNC(=N)N)C(=O)N[C@@H](CCC(=O)O)C(=O)N[C@@H](Cc1ccccc1)C(=O)N[C@H](C(=O)N[C@@H](CCC(N)=O)C(=O)N[C@@H](Cc1c[nH]c2ccccc12)C(=O)N[C@@H](CC(C)C)C(=O)N[C@@H](CC(C)C)C(=O)N[C@@H](CCCCNC(=O)CNC(=O)[C@H](CO)NC(=O)[C@H](CCC(=O)O)NC(=O)CNC(=O)[C@H](CO)NC(=O)CC[C@H](NC(=O)CC[C@H](NC(=O)CCCCCCCCCCCCCCCCC(=O)O)C(=O)O)C(=O)O)C(=O)N[C@H](C(N)=O)[C@@H](C)O)C(C)C [Example 36, N^ε28-[2-[[(2S)-2-[[(2S)-4-carboxy-2-[[2-[[(2S)-2-[[(4S)-4-carboxy-4-[[(4S)-4-carboxy-4-(17-carboxyheptadecanoylamino)butanoyl]amino]butanoyl]amino]-3-hydroxypropanoyl]amino]acetyl]amino]butanoyl]amino]-3-hydroxypropanoyl]amino]acetyl]-[Acb2,Leu10,Glu15,Lys17, Arg20,Glu21,Leu27,Lys28]-Glucagon amide] (I: H-H[Ac4c]QGTFTSDLSKYLESKRAREFVQWLLKT-NH2 / II: {C18 diacid-γGlu-γGlu}-SGESG; amide I:28-II:C; N-terminus assumed)",2 pM
2,"CC(C)C[C@H](NC(=O)[C@H](Cc1ccc(O)cc1)NC(=O)[C@H](CCCCN)NC(=O)[C@H](CO)NC(=O)[C@H](CC(C)C)NC(=O)[C@H](CC(=O)O)NC(=O)[C@H](CO)NC(=O)[C@@H](NC(=O)[C@H](Cc1ccccc1)NC(=O)[C@@H](NC(=O)CNC(=O)[C@H](CCC(N)=O)NC(=O)C(C)(C)NC(=O)[C@@H](N)Cc1c[nH]cn1)[C@@H](C)O)[C@@H](C)O)C(=O)N[C@@H](CC(=O)O)C(=O)N[C@@H](C)C(=O)N[C@@H](CCCNC(=N)N)C(=O)N[C@@H](CCCNC(=N)N)C(=O)N[C@@H](C)C(=O)N[C@@H](CCCNC(=N)N)C(=O)N[C@@H](CCC(=O)O)C(=O)N[C@@H](Cc1ccccc1)C(=O)N[C@H](C(=O)N[C@@H](CCC(N)=O)C(=O)N[C@@H](Cc1c[nH]c2ccccc12)C(=O)N[C@@H](CC(C)C)C(=O)N[C@@H](CC(C)C)C(=O)N[C@@H](CC(N)=O)C(=O)N[C@@H](CCCCNC(=O)CC[C@H](NC(=O)CC[C@H](NC(=O)COCCOCCNC(=O)CC[C@H](NC(=O)CCCCCCCCCCCCCCCCC(=O)O)C(=O)O)C(=O)O)C(=O)O)C(N)=O)C(C)C [Example 39, N^ε29-[(4S)-4-carboxy-4-[[(4S)-4-carboxy-4-[[2-[2-[2-[[(4S)-4-carboxy-4-(17-carboxyheptadecanoylamino)butanoyl]amino]ethoxy]ethoxy]acetyl]amino]butanoyl]amino]butanoyl]-[Aib2,Leu10,Ala16,Arg20,Glu21,Leu27,Lys29]-Glucagon amide] (H-H[Aib]QGTFTSDLSKYLDARRAREFVQWLLNK([γGlu-γGlu-AEEA-γGlu-C18 diacid])-NH2; N-terminus assumed)",4 pM
3,"CC(C)C[C@H](NC(=O)[C@H](Cc1ccc(O)cc1)NC(=O)[C@H](CCCCN)NC(=O)[C@H](CO)NC(=O)[C@H](CC(C)C)NC(=O)[C@H](CC(=O)O)NC(=O)[C@H](CO)NC(=O)[C@@H](NC(=O)[C@H](Cc1ccccc1)NC(=O)[C@@H](NC(=O)CNC(=O)[C@H](Cc1c[nH]cn1)NC(=O)C1(NC(=O)[C@@H](N)Cc2c[nH]cn2)CCC1)[C@@H](C)O)[C@@H](C)O)C(=O)N[C@@H](CCC(=O)O)C(=O)N[C@@H](CO)C(=O)N[C@@H](CCCNC(=N)N)C(=O)N[C@@H](CCCNC(=N)N)C(=O)N[C@@H](C)C(=O)N[C@@H](CCC(N)=O)C(=O)N[C@@H](CC(=O)O)C(=O)N[C@@H](Cc1ccccc1)C(=O)N[C@H](C(=O)N[C@@H](CCC(N)=O)C(=O)N[C@@H](Cc1c[nH]c2ccccc12)C(=O)N[C@@H](CC(C)C)C(=O)N[C@@H](CC(C)C)C(=O)N[C@@H](CCCCNC(=O)CNC(=O)[C@H](CO)NC(=O)[C@H](CCC(=O)O)NC(=O)CNC(=O)[C@H](CO)NC(=O)CC[C@H](NC(=O)CC[C@H](NC(=O)CCCCCCCCCCCCCCCCC(=O)O)C(=O)O)C(=O)O)C(=O)N[C@H](C(N)=O)[C@@H](C)O)C(C)C [Example 35, N^ε28-[2-[[(2S)-2-[[(2S)-4-carboxy-2-[[2-[[(2S)-2-[[(4S)-4-carboxy-4-[[(4S)-4-carboxy-4-(17-carboxyheptadecanoylamino)butanoyl]amino]butanoyl]amino]-3-hydroxypropanoyl]amino]acetyl]amino]butanoyl]amino]-3-hydroxypropanoyl]amino]acetyl]-[Acb2,His3,Leu10,Glu15, Leu27,Lys28]-Glucagon amide] (I: H-H[Ac4c]HGTFTSDLSKYLESRRAQDFVQWLLKT-NH2 / II: {C18 diacid-γGlu-γGlu}-SGESG; amide I:28-II:C; N-terminus assumed)",3 pM
4,"CC(C)C[C@H](NC(=O)[C@H](Cc1ccc(O)cc1)NC(=O)[C@H](CCCCN)NC(=O)[C@H](CO)NC(=O)[C@H](CC(C)C)NC(=O)[C@H](CC(=O)O)NC(=O)[C@H](CO)NC(=O)[C@@H](NC(=O)[C@H](Cc1ccccc1)NC(=O)[C@@H](NC(=O)CNC(=O)[C@H](CCC(N)=O)NC(=O)C(C)(C)NC(=O)[C@@H](N)Cc1c[nH]cn1)[C@@H](C)O)[C@@H](C)O)C(=O)N[C@@H](CC(=O)O)C(=O)N[C@@H](C)C(=O)N[C@@H](CCCNC(=N)N)C(=O)N[C@@H](CCCNC(=N)N)C(=O)N[C@@H](C)C(=O)N[C@@H](CCCNC(=N)N)C(=O)N[C@@H](CC(=O)O)C(=O)N[C@@H](Cc1ccccc1)C(=O)N[C@H](C(=O)N[C@@H](CCC(N)=O)C(=O)N[C@@H](Cc1c[nH]c2ccccc12)C(=O)N[C@@H](CC(C)C)C(=O)N[C@@H](CC(C)C)C(=O)N[C@@H](CO)C(=O)N[C@@H](CCCCNC(=O)CC[C@H](NC(=O)CC[C@H](NC(=O)COCCOCCNC(=O)COCCOCCNC(=O)CC[C@H](NC(=O)CCCCCCCCCCCCCCCCC(=O)O)C(=O)O)C(=O)O)C(=O)O)C(N)=O)C(C)C [Example 66, N^ε29-[(4S)-4-carboxy-4-[[(4S)-4-carboxy-4-[[2-[2-[2-[[2-[2-[2-[[(4S)-4-carboxy-4-(17-carboxyheptadecanoylamino)butanoyl]amino]ethoxy]ethoxy]acetyl]amino]ethoxy]ethoxy]acetyl]amino]butanoyl]amino]butanoyl]-[Aib2,Leu10,Ala16,Arg20,Leu27,Ser28,Lys29]-Glucagon amide] (H-H[Aib]QGTFTSDLSKYLDARRARDFVQWLLSK([γGlu-γGlu-AEEA-AEEA-γGlu-C18 diacid])-NH2; N-terminus assumed)",5 pM
5,"CC(C)C[C@H](NC(=O)[C@H](Cc1c[nH]c2ccccc12)NC(=O)[C@H](CCC(N)=O)NC(=O)[C@@H](NC(=O)[C@H](Cc1ccccc1)NC(=O)[C@H](CCC(=O)O)NC(=O)[C@H](CCCNC(=N)N)NC(=O)[C@H](C)NC(=O)[C@H](CCCNC(=N)N)NC(=O)[C@H](CCCNC(=N)N)NC(=O)C(C)(C)NC(=O)[C@H](CC(=O)O)NC(=O)[C@H](CC(C)C)NC(=O)[C@H](Cc1ccc(O)cc1)NC(=O)[C@H](CCCCN)NC(=O)[C@H](CO)NC(=O)[C@H](CC(C)C)NC(=O)[C@H](CC(=O)O)NC(=O)[C@H](CO)NC(=O)[C@@H](NC(=O)[C@H](Cc1ccccc1)NC(=O)[C@@H](NC(=O)CNC(=O)[C@H](CCC(N)=O)NC(=O)C(C)(C)NC(=O)[C@@H](N)Cc1c[nH]cn1)[C@@H](C)O)[C@@H](C)O)C(C)C)C(=O)N[C@@H](CC(C)C)C(=O)N[C@@H](CCCCNC(=O)CC[C@H](NC(=O)CC[C@H](NC(=O)COCCOCCNC(=O)COCCOCCNC(=O)CC[C@H](NC(=O)CCCCCCCCCCCCCCCCC(=O)O)C(=O)O)C(=O)O)C(=O)O)C(=O)N[C@H](C(N)=O)[C@@H](C)O [Example 51, N^ε28-[(4S)-4-carboxy-4-[[(4S)-4-carboxy-4-[[2-[2-[2-[[2-[2-[2-[[(4S)-4-carboxy-4-(17-carboxyheptadecanoylamino)butanoyl]amino]ethoxy]ethoxy]acetyl]amino]ethoxy]ethoxy]acetyl]amino]butanoyl]amino]butanoyl]-[Aib2,Leu10,Aib16,Arg20,Glu21,Leu27,Lys28]-Glucagon amide] (H-H[Aib]QGTFTSDLSKYLD[Aib]RRAREFVQWLLK([γGlu-γGlu-AEEA-AEEA-γGlu-C18 diacid])T-NH2; N-terminus assumed)",6 pM
